# Measured values published in patent US20260103465A1, “GLYCOGEN SYNTHASE KINASE 3 INHIBITORS AND USES THEREOF” (The Broad Institute, Inc., priority 2023, published 2026).
# Like-named read-outs stand apart in the source and are kept apart here.
# Key:
# [1] = target: T1, GSK3a (GST-full length GSK3a) (Homo sapiens, UniProt P49840); test: GSK3a TR-FRET kinase inhibition assay; format: biochemical
# T1 construct: GST-full length GSK3a [SignalChem G08-10G]; purchased SignalChem G08-10G
# In short: (§1)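 GST-tagged full-length human kinase (1 nM), pre-incubated 30 min with compound, then reacted 100 min at ambient temperature at pH 7.5 with 200 nM biotinylated phospho-S645 glycogen synthase 631–650 peptide and ATP at 2 μM–1 mM. After EDTA quench, Tb-pSer641 antibody/streptavidin-d2 TR-FRET 665/615 ratio fitted for IC50.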
# [2] = Human liver microsomal stability; format: in vitro ADME; conditions: for half-life at 1 µM: human, liver microsomes; for Microsome Stability (Human) (DMPK_BIIB); Mean; in vitro t1/2: human liver microsomes
# In short: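 Compound incubated at 1 µM with human liver microsomes for 60 min at 37 °C, in duplicate. Percent remaining derived from compound level at 60 min relative to 0 min. Controls: microsomes with NADPH and no compound; compound with microsomes lacking NADPH.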
# MDR1 = test: MDR1/MDCK permeability assay; format: in vitro ADME; conditions: dog; for Papp A→B at 120 min, 5 µM: MDCK-MDR1, pH 7.4, A to B; for Papp B→A at 120 min, 5 µM: MDCK-MDR1, pH 7.4, B to A; for efflux ratio at 120 min, 5 µM: MDCK-MDR1, pH 7.4, Papp B-A/A-B, Mean, P. Ratio(B-A/A-B) Efflux Ratio
# In short: (§2)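 Confluent MDR1-MDCK monolayers (7–11 days old), compound dosed at 5 μM in HBSSg (≤1% DMSO) apically or basolaterally, pH 7.4 both sides, receiver with 1% BSA, N=2. Both sides sampled at 120 min and quantified by LC-MS/MS; Papp in each direction, efflux ratio B-A/A-B and recovery reported.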
# [3] = target: T2, GSK3b (GST-full length GSK3b) (Homo sapiens, UniProt P49841); test: GSK3b TR-FRET kinase inhibition assay; format: biochemical
# T2 construct: GST-full length GSK3b: [SignalChem G08-9G]; purchased SignalChem G08-9G
# T2 sequence (P49841 whole entry): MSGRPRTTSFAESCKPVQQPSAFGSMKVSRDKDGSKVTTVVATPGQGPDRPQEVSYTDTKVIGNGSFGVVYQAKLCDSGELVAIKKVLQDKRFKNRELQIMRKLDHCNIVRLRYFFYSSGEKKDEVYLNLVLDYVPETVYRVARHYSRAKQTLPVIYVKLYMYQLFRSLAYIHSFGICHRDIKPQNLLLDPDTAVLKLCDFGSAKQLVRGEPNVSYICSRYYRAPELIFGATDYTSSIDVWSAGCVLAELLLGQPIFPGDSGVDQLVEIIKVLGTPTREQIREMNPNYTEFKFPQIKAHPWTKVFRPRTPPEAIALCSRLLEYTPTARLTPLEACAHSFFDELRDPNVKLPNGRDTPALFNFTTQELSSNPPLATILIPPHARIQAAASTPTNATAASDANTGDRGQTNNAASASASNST
# In short: as §1
# [4] = test system: MDR1-MDCK cell monolayers; test: MDR1/MDCK permeability assay; format: in vitro ADME; conditions: for MDCK Permeability (MDR1-MDCK); Mean; Papp(A-B) (10^−6 cm/s): A to B; for MDCK Permeability (MDR1-MDCK); Mean; Papp(B-A) (10^−6 cm/s): B to A
# In short: as §2
# [5] = 1 mM ATP, Table 3, read-out: GSK3a TR-FRET 1 mM ATP Average IC50
# [6] = 1 mM ATP, Table 3, read-out: GSK3b TR-FRET 1 mM ATP Average IC50
# [7] = 4 μM ATP, read-out: GSK3α TR-FRET 4 μM ATP GMean IC50
# [8] = 2 μM ATP, read-out: GSK3β TR-FRET 2 μM ATP GMean IC50
# [9] = 1 mM ATP, Table 4, read-out: GSK3α TR-FRET 1 mM ATP GMean IC50
# [10] = 1 mM ATP, Table 4, read-out: GSK3β TR-FRET 1 mM ATP GMean IC50
# T1 sequence (P49840 whole entry): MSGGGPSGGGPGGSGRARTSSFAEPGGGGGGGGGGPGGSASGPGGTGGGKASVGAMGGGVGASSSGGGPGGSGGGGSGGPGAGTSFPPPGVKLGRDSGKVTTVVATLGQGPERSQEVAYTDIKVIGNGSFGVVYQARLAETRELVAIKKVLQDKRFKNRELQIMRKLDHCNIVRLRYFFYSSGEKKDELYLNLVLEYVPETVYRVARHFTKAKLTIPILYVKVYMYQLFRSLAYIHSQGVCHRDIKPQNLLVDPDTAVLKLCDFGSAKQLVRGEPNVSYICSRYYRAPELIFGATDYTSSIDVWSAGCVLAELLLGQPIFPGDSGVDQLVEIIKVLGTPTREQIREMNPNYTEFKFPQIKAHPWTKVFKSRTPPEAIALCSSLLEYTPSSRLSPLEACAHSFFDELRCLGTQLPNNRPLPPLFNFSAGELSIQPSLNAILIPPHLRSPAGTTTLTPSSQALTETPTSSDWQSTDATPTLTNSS
SMILES,"IC50 [1, 5] [nM]","IC50 [3, 6] [nM]","IC50 [1, 7] [nM]",Microsome Stability (Human) (DMPK_BIIB); Mean; in vitro t1/2 ([2]; Table 4) [min],MDCK Permeability (MDR1-MDCK); Mean; Papp(A-B) (10^−6 cm/s) ([4]; Table 4),MDCK Permeability (MDR1-MDCK); Mean; Papp(B-A) (10^−6 cm/s) ([4]; Table 4),"MDCK Permeability (MDR1-MDCK); Mean; P. Ratio(B-A/A-B) Efflux Ratio ([4]; Papp B-A/A-B, Table 4)","IC50 [3, 8] [nM]","IC50 [1, 9] [nM]","IC50 [3, 10] [nM]",also measured
"CCC1(c2ccccc2)C2=C(CC(C)(C)CC2=O)Nc2ncc(C(F)(F)F)cc21 (single isomer, unassigned) [Compound 133A]",1000 to 5000,1000 to 5000,,,,,,,,,"IC50 ([1]; 10 μM ATP, read-out: GSK3a 10 μM ATP Average IC50): ≤ 100 nM; IC50 ([1]; 100 μM ATP, read-out: GSK3a 100 μM ATP Average IC50): 100 to 1000 nM; half-life at 1 µM ([2]; Table 3, read-out: Microsome Stability (Human) (DMPK_BIIB), Mean, in vitro t1/2): 78 min; half-life at 1 µM ([2]; Table 4, read-out: Microsome Stability (Human) (DMPK_BIIB), Mean, in vitro t1/2): 1.4 min; Papp A→B at 120 min, 5 µM (MDR1; Table 3): 14 ×10⁻⁶ cm/s; Papp A→B at 120 min, 5 µM (MDR1; Table 4): 13 ×10⁻⁶ cm/s; Papp B→A at 120 min, 5 µM (MDR1; Table 3): 8.2 ×10⁻⁶ cm/s; Papp B→A at 120 min, 5 µM (MDR1; Table 4): 19 ×10⁻⁶ cm/s; efflux ratio at 120 min, 5 µM (MDR1; Table 3, read-out: MIDCK Permeability (MDR1-MDCK)): 0.56; efflux ratio at 120 min, 5 µM (MDR1; Table 4, read-out: MDCK Permeability (MDR1-MDCK)): 1.5; IC50 ([3]; 10 μM ATP, read-out: GSK3b 10 μM ATP Average IC50): ≤ 100 nM; IC50 ([3]; 100 μM ATP, read-out: GSK3b 100 μM ATP Average IC50): 100 to 1000 nM"
"CC(C)(C)Cc1cnccc1-c1cccc(C2(C)C3=C(CC(C)(C)CC3=O)Nc3ncc(F)cc32)c1 (single isomer, unassigned) [Compound 168A]",100 to 1000,100 to 1000,,,,,,,,,"Microsome Stability (Human) (DMPK_BIIB); Mean; in vitro t1/2 ([2]; Table 3): 33 min; MDCK Permeability (MDR1-MDCK); Mean; Papp(A-B) (10^−6 cm/s) ([4]; Table 3): 2.5 10^−6 cm/s; MDCK Permeability (MDR1-MDCK); Mean; Papp(B-A) (10^−6 cm/s) ([4]; Table 3): 2.2 10^−6 cm/s; MIDCK Permeability (MDR1-MDCK); Mean; P. Ratio(B-A/A-B) Efflux Ratio ([4]; Papp B-A/A-B, Table 3): 0.90"
"CCC1(c2cccc(O)c2)C2=C(CC(C)(C)CC2=O)Nc2ncccc21 (single isomer, unassigned) [Compound 1004B]",,,1000 to 5000,5.3,0.7 10^−6 cm/s,47 10^−6 cm/s,65,> 5000,,,
"CCC1(c2ccccc2)C2=C(CC3(CCC3)CC2=O)Nc2ncc(F)cc21 (single isomer, unassigned) [Compound 1008A]",,,≤ 100,19,22 10^−6 cm/s,26 10^−6 cm/s,1.2,≤ 100,100 to 1000,1000 to 5000,
"CCC1(c2cccc(-c3ccncc3C)c2)C2=C(CC(C)(C)CC2=O)Nc2ncccc21 (single isomer, unassigned) [Compound 1020B]",,,≤ 100,6.4,14 10^−6 cm/s,24 10^−6 cm/s,1.8,≤ 100,100 to 1000,1000 to 5000,
"CCC1(c2cccc(-c3c(C)nn(C)c3C)c2)C2=C(CC(C)(C)CC2=O)Nc2ncccc21 (single isomer, unassigned) [Compound 150B]",,,≤ 100,2.7,2.9 10^−6 cm/s,29 10^−6 cm/s,9.9,≤ 100,100 to 1000,1000 to 5000,
